Literature values as cited in patent US20050032891A1, “Method for treating alcoholic hepatitis” (University of Pittsburgh-of the Commonwealth System of …, priority 2003, published 2005).

Tested on: rats subjected to hemorrhagic shock and resuscitation
Conditions: treatment with EP

SMILES: CCOC(=O)C(C)=O [EP, ethyl pyruvate]
- hepatic lipid peroxidation: decreases hepatic lipid peroxidation
